Assay results from ChEMBL document CHEMBL1201862, “PubChem BioAssay data set” (2004).
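Exposure lasted 48 hours, with cells grown in 96-well plates and compounds tested at five concentrations. Abbreviation: GI50, concentration required for 50% inhibition of growth.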 Activity calls are given as the source filed them. No stated cut-off is given here; in the data, active = GI50 up to about 1.1 µM and inactive = higher.

Assays:
Experiment in all cases: NCI-60 cell line screen, 48 h
SW-620 = test system: SW-620
ACHN = test system: ACHN
HT-29 = test system: HT-29
SK-MEL-28 = test system: SK-MEL-28
NCI-H23 = test system: NCI-H23
SN12C = test system: SN12C
LXFL 529 = test system: LXFL 529
786-0 = test system: 786-0
OVCAR-3 = test system: OVCAR-3
HL-60 = test system: HL-60
SK-MEL-2 = test system: SK-MEL-2
UO-31 = test system: UO-31
HOP-92 = test system: HOP-92
CAKI-1 = test system: CAKI-1
SNB-78 = test system: SNB-78
PC-3 = test system: PC-3
HOP-18 = test system: HOP-18
SK-MEL-5 = test system: SK-MEL-5
DU-145 = test system: DU-145
Hs-578T = test system: Hs-578T

With Cc1ccccc1NC(=O)C1C(=O)N(c2ccccc2C)C(=O)/C1=N\NC(N)=S (stereo not given) the GI50 (SW-620) was > 100 µM (inactive), the GI50 (ACHN) was > 100 µM (inactive) and the GI50 (HT-29) was > 100 µM (inactive). For the same compound, the GI50 (SK-MEL-28) was > 100 µM (inactive), the GI50 (NCI-H23) was > 100 µM (inactive) and the GI50 (SN12C) was > 100 µM (inactive). For the same compound, the GI50 (LXFL 529) was > 100 µM (inactive), the GI50 (786-0) was > 100 µM (inactive) and the GI50 (OVCAR-3) was > 100 µM (inactive). The GI50 (HL-60) was > 100 µM (inactive), the GI50 (SK-MEL-2) was > 100 µM (inactive) and the GI50 (UO-31) was > 100 µM (inactive). The GI50 (HOP-92) was > 100 µM (inactive) and the GI50 (CAKI-1) was > 100 µM (inactive).
CN(C)c1ccc(/N=C2/C=CC(=C(C#N)C#N)c3ccccc32)cc1 was tested, and the GI50 (SW-620) was 0.114 µM (active), the GI50 (ACHN) was 0.485 µM (active) and the GI50 (HT-29) was 0.177 µM (active). The GI50 (SK-MEL-28) was 0.52 µM (active), the GI50 (SNB-78) was 0.479 µM (active) and the GI50 (NCI-H23) was 0.259 µM (active). For the same compound, the GI50 (PC-3) was 0.183 µM (active), the GI50 (HOP-18) was 1.14 µM (inactive) and the GI50 (SN12C) was 0.332 µM (active). For the same compound, the GI50 (786-0) was 0.385 µM (active), the GI50 (OVCAR-3) was 0.118 µM (active) and the GI50 (HL-60) was 0.0541 µM (active). The GI50 (SK-MEL-5) was 0.133 µM (active), the GI50 (DU-145) was 0.259 µM (active) and the GI50 (SK-MEL-2) was 0.337 µM (active). For the same compound, the GI50 (UO-31) was 0.893 µM (active), the GI50 (Hs-578T) was 0.361 µM (active) and the GI50 (HOP-92) was 0.07 µM (active). For the same compound, the GI50 (CAKI-1) was 0.55 µM (active).
In the case of COc1cccc(/C=C2\C(=O)N(C(=O)c3ccc(NC(C)=O)cc3)N=C2C)c1, the GI50 (SW-620) is reported as > 100 µM (inactive), the GI50 (ACHN) is reported as > 100 µM (inactive) and the GI50 (HT-29) is reported as > 100 µM (inactive). The GI50 (SK-MEL-28) was > 100 µM (inactive), the GI50 (SNB-78) was > 100 µM (inactive) and the GI50 (NCI-H23) was > 100 µM (inactive). For the same compound, the GI50 (SN12C) was > 100 µM (inactive), the GI50 (786-0) was > 100 µM (inactive) and the GI50 (OVCAR-3) was > 100 µM (inactive). The GI50 (SK-MEL-5) was 56.1 µM (inactive), the GI50 (SK-MEL-2) was > 100 µM (inactive) and the GI50 (UO-31) was > 100 µM (inactive). For the same compound, the GI50 (CAKI-1) was > 100 µM (inactive).
For OC12CCC3(O)c4ccccc4C3C1c1ccccc12 (stereo not given), the GI50 (SW-620) was > 100 µM (inactive), the GI50 (ACHN) was > 100 µM (inactive) and the GI50 (HT-29) was > 100 µM (inactive). The GI50 (SK-MEL-28) was > 100 µM (inactive), the GI50 (SNB-78) was > 100 µM (inactive) and the GI50 (NCI-H23) was > 100 µM (inactive). For the same compound, the GI50 (HOP-18) was > 100 µM (inactive), the GI50 (SN12C) was > 100 µM (inactive) and the GI50 (LXFL 529) was > 100 µM (inactive). The GI50 (786-0) was > 100 µM (inactive), the GI50 (HL-60) was > 100 µM (inactive) and the GI50 (SK-MEL-5) was > 100 µM (inactive). The GI50 (SK-MEL-2) was > 100 µM (inactive) and the GI50 (UO-31) was > 100 µM (inactive).
In the case of O=C(Cn1ccnc1[N+](=O)[O-])c1ccc(F)cc1, the GI50 (SW-620) is reported as > 100 µM (inactive), the GI50 (ACHN) is reported as > 100 µM (inactive) and the GI50 (HT-29) is reported as > 100 µM (inactive). For the same compound, the GI50 (SK-MEL-28) was > 100 µM (inactive), the GI50 (NCI-H23) was > 100 µM (inactive) and the GI50 (HOP-18) was > 100 µM (inactive). The GI50 (SN12C) was > 100 µM (inactive), the GI50 (LXFL 529) was > 100 µM (inactive) and the GI50 (786-0) was > 100 µM (inactive). The GI50 (OVCAR-3) was > 100 µM (inactive), the GI50 (HL-60) was > 100 µM (inactive) and the GI50 (SK-MEL-5) was > 100 µM (inactive). The GI50 (SK-MEL-2) was > 100 µM (inactive), the GI50 (UO-31) was > 100 µM (inactive) and the GI50 (HOP-92) was > 100 µM (inactive). For the same compound, the GI50 (CAKI-1) was > 100 µM (inactive).
With O=C1N[C@@H]2C(=C[C@H](O)[C@@H](O)[C@H]2O)c2cc3c(c(O)c21)OCO3 [NARCICLASINE] the GI50 (SW-620) was 0.045 µM (active), the GI50 (HT-29) was 0.045 µM (active) and the GI50 (SK-MEL-28) was 0.045 µM (active). For the same compound, the GI50 (SNB-78) was 0.045 µM (active), the GI50 (NCI-H23) was 0.045 µM (active) and the GI50 (HOP-18) was 0.0535 µM (active). The GI50 (SN12C) was 0.045 µM (active), the GI50 (OVCAR-3) was 0.045 µM (active) and the GI50 (HL-60) was 0.0646 µM (active). For the same compound, the GI50 (SK-MEL-5) was 0.045 µM (active), the GI50 (SK-MEL-2) was 0.045 µM (active) and the GI50 (UO-31) was 0.045 µM (active). For the same compound, the GI50 (HOP-92) was 0.045 µM (active) and the GI50 (CAKI-1) was 0.045 µM (active).
